Results reported in patent US7122193B1 (priority 1994, dated 2006).

Legend:
I-A^d class II molecules = I-A^d class II molecules (Mus musculus, UniProt P01921+P04228); type: cell-based
I-E^d class II molecules = I-E^d class II molecules (Mus musculus, UniProt P01904+P01915); type: cell-based
Chain of I-E^d class II molecules (P01904 26-255 limits assumed): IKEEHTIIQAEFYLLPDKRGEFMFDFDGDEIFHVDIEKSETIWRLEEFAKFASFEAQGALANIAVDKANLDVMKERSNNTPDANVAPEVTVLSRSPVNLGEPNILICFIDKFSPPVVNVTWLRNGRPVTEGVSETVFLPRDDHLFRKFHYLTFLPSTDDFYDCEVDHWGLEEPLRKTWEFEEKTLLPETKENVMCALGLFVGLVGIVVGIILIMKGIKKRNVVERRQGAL
Chain of I-E^d class II molecules (P01915 27-264 limits assumed): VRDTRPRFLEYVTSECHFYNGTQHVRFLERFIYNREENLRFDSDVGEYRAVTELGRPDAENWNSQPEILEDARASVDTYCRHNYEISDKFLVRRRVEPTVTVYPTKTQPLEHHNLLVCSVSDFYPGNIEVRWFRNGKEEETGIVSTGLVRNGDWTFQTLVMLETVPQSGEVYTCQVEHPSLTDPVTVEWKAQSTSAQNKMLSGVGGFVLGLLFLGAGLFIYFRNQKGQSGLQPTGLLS

Chain of I-A^d class II molecules (P04228 24-256 limits assumed): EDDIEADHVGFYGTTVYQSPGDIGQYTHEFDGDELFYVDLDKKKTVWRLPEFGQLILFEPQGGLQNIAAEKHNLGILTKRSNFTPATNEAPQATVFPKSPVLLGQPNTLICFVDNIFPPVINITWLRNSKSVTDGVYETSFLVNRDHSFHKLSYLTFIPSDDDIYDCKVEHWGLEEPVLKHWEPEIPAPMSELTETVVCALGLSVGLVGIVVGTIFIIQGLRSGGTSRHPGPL
Chain of I-A^d class II molecules (P01921 28-265 limits assumed): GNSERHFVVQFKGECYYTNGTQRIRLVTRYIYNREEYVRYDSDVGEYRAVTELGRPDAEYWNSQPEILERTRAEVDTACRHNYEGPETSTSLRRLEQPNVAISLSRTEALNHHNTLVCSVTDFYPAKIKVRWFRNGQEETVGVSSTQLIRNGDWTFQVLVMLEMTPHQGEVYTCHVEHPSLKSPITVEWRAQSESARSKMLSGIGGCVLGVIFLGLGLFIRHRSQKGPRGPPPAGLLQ

Substance: CH3CO-(D)Thr-(D)Asp-(D)Lys-(D)Tyr-(D)Thr-(D)Ile-(D)Lys-(D)Trp-(D)Val-(D)Ala-(D)Phe-(D)Leu-(D)Lys-NH2
- binding to I-A^d transfected fibroblasts, in words (I-A^d class II molecules): Neither the L- nor the retro-inverso peptides bound
- inhibition (of IL-2 production / binding of cI 12–26) (I-E^d class II molecules): up to 56%
